Several values for one entry are separate records, joined by “and”; a condition that tells them apart may be missing. Equal values may be shown once. Marks after values point to notes of the source that are not given here.
System: postmenopausal women
Assay: ERC-210 phase III trial, Abbreviated Sexual Function (ASF) questionnaire
Assay type: in vivo
Excerpt: The example below is intended only to illustrate a particular embodiment of the present invention and is not meant to limit the scope of the invention in any manner. This study (ERC-210) is a phase III, prospective, multicentre, randomized, placebo-controlled, and double-blind trial. […] The DHEA ovules or suppositories (Vaginorm™) containing prasterone in a lipophilic base were manufactured by Recipharm, Karlskoga, Sweden. The study was divided into two phases, namely screening followed by a treatment period of 12 weeks. The protocol was approved by the Institutional Review Board of the Centre Hospitalier de I'Université Laval (Quebec City, Canada), McGill University (Montreal, Canada), Ethica (Montreal, Canada), Eastern Virginia Medical School (Norfolk, Va., USA) and the Western Institutional Review Board (Los Angeles, USA).
The inclusion and exclusion criteria were as described in (Labrie, Archer et al. 2009b). A written informed consent was obtained from all subjects prior to the performance of any study-related procedure. […] A partial gynecological examination was performed to evaluate the aspect of the mucosa and tolerance to the medication on day 1 and at all visits. The standard laboratory tests, namely hematology (including complete blood count and coagulation), blood chemistry and urinalysis were performed at screening, day 1 and at all visits. Summary tabulations were prepared displaying the number of observations, mean or geometric mean as appropriate, SD; SEM, 95% two-sided CI; median, minimum, and maximum for continuous variables; and the number and percentage per category for categorical data. Statistical analyses were performed at the two-sided significance level of 0.05 unless otherwise stated. […] The endpoints for analysis consisted of the following: desire/interest, arousal and orgasm were self-rated by the women at screening, at day 1, and at week 4, 8 and 12 using the ASF and MENQOL questionnaires. Baseline was defined as the value on day 1, obtained before first use of the study treatment, and change from baseline to week 12 was calculated for each participant for each domain endpoint. The analysis comparing each dose of DHEA to placebo was performed by analysis of covariance, with the baseline value used as the covariate. Missing values were replaced by the last observation made.
The other questionnaire used in our study to investigate sexual dysfunction has been the Abbreviated Sexual Function (ASF) questionnaire. […] When the groups with no MS pain are considered, improvements of −1.2% (p=0.9028), 31% (p=0.0337), 4.8% (p=0.3706) and 3.7% (p=0.5372) are observed compared to 12% (p=0.0134), 32% (p=0.1349), 16% (p=0.8546) and 29% (p=0.0341) in the corresponding MS pain groups.
When the orgasm domain of the ASF questionnaire is analyzed, a strong placebo effect is observed in response to the composite of the three following questions; a) over the last 4 weeks, how often did you have an orgasm when you took part in sexual activity (may be with or without partner); b) over the last 4 weeks, in general, how pleasurable were the orgasms the you had and; c) over the last 4 weeks, in general, how easy was it for you to reach orgasm?

[1] = 0.25% DHEA intravaginal daily 12 weeks, MS pain at sexual activity at baseline
[2] = 0.25% DHEA intravaginal daily 12 weeks, all subjects (ITT)
[3] = 0.25% DHEA intravaginal daily 12 weeks, no MS pain at sexual activity at baseline
[4] = 0.5% DHEA intravaginal daily 12 weeks, MS pain at sexual activity at baseline
[5] = 0.5% DHEA intravaginal daily 12 weeks, all subjects (ITT)
[6] = 0.5% DHEA intravaginal daily 12 weeks, no MS pain at sexual activity at baseline
[7] = 1.0% DHEA intravaginal daily 12 weeks, no MS pain at sexual activity at baseline
[8] = Pool 3 Doses DHEA intravaginal daily 12 weeks, MS pain at sexual activity at baseline
[9] = Pool 3 Doses DHEA intravaginal daily 12 weeks, MS pain at sexual activity at baseline, listed as prasterone
[10] = Pool 3 Doses DHEA intravaginal daily 12 weeks, all subjects (ITT)
[11] = Pool 3 Doses DHEA intravaginal daily 12 weeks, all subjects (ITT), listed as prasterone
[12] = Pool 3 Doses DHEA intravaginal daily 12 weeks, no MS pain at sexual activity at baseline
[13] = Pool 3 Doses DHEA intravaginal daily 12 weeks, no MS pain at sexual activity at baseline, listed as prasterone
[14] = average of the 3 DHEA doses, MS PAIN at baseline
[15] = average of the 3 DHEA doses, NO MS PAIN at baseline
[16] = average of the 3 DHEA doses, TOTAL (all women)

C[C@]12CC[C@H](O)CC1=CC[C@@H]1[C@@H]2CC[C@]2(C)C(=O)CC[C@@H]12 [DHEA, (3β)-3-Hydroxyandrost-5-en-17-one]
ASF Arousal/lubrication score, average % change from baseline to Week 12 (increased from baseline) [1]: 189%
ASF Arousal/sensation score, average % change from baseline to Week 12 (increased from baseline) [1]: 97%
ASF Desire score, average % change from baseline to Week 12 (increased from baseline) [1]: 32%
ASF Orgasm score, average % change from baseline to Week 12 (increased from baseline) [1]: 66%
ASF SUMMARY SCORE, average % change from baseline to Week 12 (increased from baseline) [1]: 59%
ASF Arousal/sensation score, average % change from baseline to Week 12 (increased from baseline) [2]: 80%
ASF Orgasm score, average % change from baseline to Week 12 (increased from baseline) [2]: 64%
ASF Arousal/lubrication score, average % change from baseline to Week 12 (increased from baseline) [3]: 95%
ASF Arousal/sensation score, average % change from baseline to Week 12 (increased from baseline) [3]: 43%
ASF Orgasm score, average % change from baseline to Week 12 (increased from baseline) [3]: 59%
ASF SUMMARY SCORE, average % change from baseline to Week 12 (increased from baseline) [3]: 42%
ASF Arousal/sensation score, average % change from baseline to Week 12 (increased from baseline) [4]: 66%
ASF Desire score, average % change from baseline to Week 12 (increased from baseline) [4]: 16%
ASF Orgasm score, average % change from baseline to Week 12 (increased from baseline) [4]: 51%
ASF SUMMARY SCORE, average % change from baseline to Week 12 (increased from baseline) [4]: 42%
ASF Desire score, average % change from baseline to Week 12 (increased from baseline) [5]: 13%
ASF Orgasm score, average % change from baseline to Week 12 (increased from baseline) [5]: 53%
ASF SUMMARY SCORE, average % change from baseline to Week 12 (increased from baseline) [5]: 39%
ASF Arousal/lubrication score, average % change from baseline to Week 12 (increased from baseline) [6]: 106%
ASF Arousal/sensation score, average % change from baseline to Week 12 (increased from baseline) [6]: 103%
ASF Desire score, average % change from baseline to Week 12 (increased from baseline) [6]: 4.8%
ASF Orgasm score, average % change from baseline to Week 12 (increased from baseline) [6]: 56%
ASF SUMMARY SCORE, average % change from baseline to Week 12 (increased from baseline) [6]: 31%
ASF Orgasm score, average % change from baseline to Week 12 (increased from baseline) (1.0% DHEA intravaginal daily 12 weeks, MS pain at sexual activity at baseline): 76%
ASF Orgasm score, average % change from baseline to Week 12 (increased from baseline) (1.0% DHEA intravaginal daily 12 weeks, all subjects (ITT)): 71%
ASF Arousal/lubrication score, average % change from baseline to Week 12 (increased from baseline) [7]: 63%
ASF Arousal/sensation score, average % change from baseline to Week 12 (increased from baseline) [7]: 30%
ASF Desire score, average % change from baseline to Week 12 (increased from baseline) [7]: 3.7%
ASF Orgasm score, average % change from baseline to Week 12 (increased from baseline) [7]: 50%
ASF SUMMARY SCORE, average % change from baseline to Week 12 (increased from baseline) [7]: 21%
Sum of changes above placebo, ASF domains (MS group): 209.4%
ASF Arousal/lubrication score, average % change from baseline to Week 12 (increased from baseline) [8]: 171%**
ASF Arousal/sensation score, average % change from baseline to Week 12 (increased from baseline) [8]: 76.2%*
ASF Desire score, average % change from baseline to Week 12 (increased from baseline) [8]: 24.9%
ASF Orgasm score, average % change from baseline to Week 12 (increased from baseline) [8]: 64.3%
ASF Arousal/lubrication score, average % change from baseline to Week 12 (increased from baseline) [9]: 171%
ASF Arousal/sensation score, average % change from baseline to Week 12 (increased from baseline) [9]: 76.2%
ASF Desire score, average % change from baseline to Week 12 (increased from baseline) [9]: 24.9%
ASF Orgasm score, average % change from baseline to Week 12 (increased from baseline) [9]: 64.3%
ASF Arousal/lubrication score, average % change from baseline to Week 12 (increased from baseline) [10]: 149%**
ASF Arousal/sensation score, average % change from baseline to Week 12 (increased from baseline) [10]: 71.2%**
ASF Desire score, average % change from baseline to Week 12 (increased from baseline) [10]: 21.0%*
ASF Orgasm score, average % change from baseline to Week 12 (increased from baseline) [10]: 62.4%
ASF SUMMARY SCORE, average % change from baseline to Week 12 (increased from baseline) [10]: 46.6%**
ASF Arousal/lubrication score, average % change from baseline to Week 12 (increased from baseline) [11]: 149%
ASF Arousal/sensation score, average % change from baseline to Week 12 (increased from baseline) [11]: 71.2%
ASF Desire score, average % change from baseline to Week 12 (increased from baseline) [11]: 21.0%
ASF Orgasm score, average % change from baseline to Week 12 (increased from baseline) [11]: 62.4%
ASF SUMMARY SCORE, average % change from baseline to Week 12 (increased from baseline) [11]: 46.6%
ASF Arousal/lubrication score, average % change from baseline to Week 12 (increased from baseline) [12]: 84.6%
ASF Arousal/sensation score, average % change from baseline to Week 12 (increased from baseline) [12]: 52.7%
ASF Desire score, average % change from baseline to Week 12 (increased from baseline) [12]: 14.0%
ASF Orgasm score, average % change from baseline to Week 12 (increased from baseline) [12]: 55.3%
ASF SUMMARY SCORE, average % change from baseline to Week 12 (increased from baseline) [12]: 31.1%
ASF Arousal/lubrication score, average % change from baseline to Week 12 (increased from baseline) [13]: 84.6%
ASF Arousal/sensation score, average % change from baseline to Week 12 (increased from baseline) [13]: 52.7%
ASF Desire score, average % change from baseline to Week 12 (increased from baseline) [13]: 14.0%
ASF Orgasm score, average % change from baseline to Week 12 (increased from baseline) [13]: 55.3%
ASF Arousal/lubrication, average % change from baseline to Week 12 in severity score over placebo [14]: 118%**
ASF Arousal/sensation, average % change from baseline to Week 12 in severity score over placebo [14]: 64.2%*
ASF Desire, average % change from baseline to Week 12 in severity score over placebo [14]: 12.9%
ASF Orgasm, average % change from baseline to Week 12 in severity score over placebo [14]: 14.3%
ASF Arousal/lubrication, average % change from baseline to Week 12 in severity score over placebo [15]: 67.6%
ASF Arousal/sensation, average % change from baseline to Week 12 in severity score over placebo [15]: 58.0%
ASF Desire, average % change from baseline to Week 12 in severity score over placebo [15]: 15.2%
ASF Orgasm, average % change from baseline to Week 12 in severity score over placebo [15]: 59.4%
ASF Summary score, average % change from baseline to Week 12 in severity score over placebo [15]: 32.1%
ASF Arousal/lubrication, average % change from baseline to Week 12 in severity score over placebo [16]: 104%**
ASF Arousal/sensation, average % change from baseline to Week 12 in severity score over placebo [16]: 62.6%**
ASF Desire, average % change from baseline to Week 12 in severity score over placebo [16]: 12.3%*
ASF Orgasm, average % change from baseline to Week 12 in severity score over placebo [16]: 26.4%
Sum of changes above placebo, ASF domains (non MS group): 200.2% and 202.2%
Specificity of the effect of DHEA, ASF (non MS pain group versus MS pain group): 30 fold

From patent US20140045806A1 (priority 2012, published 2014)
